Assay results reported in patent publication US20240252463A1, “METHODS OF TREATING FIBROTIC PATHOLOGIES” (Mayo Foundation for Medical Education and Research, priority 2018, published 2024).
Where a name gives a salt, the structure may show the parent alone. Read-outs that look alike come from different tables or passages of the source. Where no end group is shown, it is not given here.

What was measured:
Type in all cases: cell-based, human
YAP/TAZ [1] = test: YAP/TAZ nuclear localization in IMR-90 and other mesenchymal cells (cardiac, dermal fibroblasts, hepatic stellate cells); settings: for YAP/TAZ nuclear localization: fibroblasts on stiff matrix (plastic), IMR-90 cells treated 2 hours (FIG. 2a); for YAP/TAZ nuclear localization in confluent fibroblasts, ligand alone: ET-1 100 nM, LPA 10 μM, 5-HT 1 μM, 2 hours (FIG. 2c)
Procedure: FIGS. 2A-2E Dopamine Receptor D1 agonism blocks YAP/TAZ nuclear localization. 2a. Selective agonists of dopamine receptor D1 with varying efficacy inhibit YAP/TAZ nuclear localization; this effect can be overcome by treatment with a DRD1 receptor antagonist (SCH 39166, 3 μM), (Dihydrexidine, 10 μM). IMR-90 cells treated 2 hours prior to fixation. N=4 (****p<0.0001 vs. 0.1% DMSO vehicle control). Scale bar represents 100 μm. 2b. Consistent with DRD1 expression, DHX inhibits YAP/TAZ only in fibroblasts (IPF-FBs) but not in epithelial (NHEpCs) or endothelial (NHMVECs) cells. N=4 (****p<0.0001 vs. 0.1% DMSO vehicle control) 2c. YAP/TAZ localization is induced through multiple ligands which stimulate receptors coupled to Galphαi/q/12, endothelin 1 (ET-1: 100 nM), lysophosphatidic acid (LPA: 10 μM), and serotonin (5-HT: 1 μM). In each case DHX treatment (10 μM) can reverse this effect on YAP/TAZ. IMR-90 cells plated densely onto plastic cell culture plates for 24 hours in media containing 0.1% FBS, treated for 2 hours prior to fixation. N=4 (****p<0.0001 vs. 0.1% DMSO vehicle control), (++++p<0.0001 vs. the respective stimulated agonist ET-1, LPA, or 5-HT). Scale bar represents 100 μm. 2d. cAMP measured in IPF patient-derived fibroblasts treated for 20 minutes with DHX (10 μM)+/−SCH 39166 (3 μM). N=3 (**p<0.01 vs. 0.1% DMSO vehicle control). 2e. Phosphorylation of YAP by Rho-kinase inhibitor Y27632 (20 μM), direct cAMP stimulator Forskolin (10 μM), or DHX (10 μM). IMR-90 cells cultured for 24 hours in media containing 0.1% FBS, treated 2 hours prior to fixation. N=3 (***p<0.001 vs. 0.1% DMSO vehicle control).
FIGS. 6A-6C DHX inhibits YAP/TAZ localization in fibroblasts from multiple tissues. 6a. Mesenchymal cells derived from lung (IMR-90 and IPF-FBs) hepatic stellate cells (HSC), human adult cardiac fibroblasts, (HACF) and human dermal fibroblasts (HDF) were plated densely (Confluent) or sparsely (Control and all remaining conditions) onto plastic cell culture plates for 24 hours in media containing 0.1% FBS, treated for 2 hours with Rho kinase inhibitor Y27632, adenylate cyclase activator forskolin and DHX. N=4, Cells that were positive for nuclear YAP/TAZ were quantified by automated image analysis. 6b. Time course for DHX inhibition of YAP/TAZ nuclear localization. IMR-90 cells, N=3 (***p<0.001 vs. 0.1% DMSO vehicle control). 6c. […] N=3.
(§1) ImmunofluorescenceMicroscopy: Cells were plated into 96 well plates (Corning 3603) in their specific growth media and allowed to attach (8 hours). Media was then exchanged for the indicated conditions for each experiment. Cells were fixed in 3.7% formalin (Sigma-Aldrich), permeabilized in 0.25% Triton X-100 (Sigma-Aldrich) and then blocked with 1% BSA for 1 h. Cells or tissue sections were incubated overnight with mouse monoclonal antibody against αSMA (Sigma-Aldrich F3777), and/or a rabbit monoclonal antibody against YAP/TAZ (Cell Signaling D24E4) diluted 1:200 in PBS with 1% BSA. Cells were then washed and exposed to flourescence-conjugated secondary antibodies (Invitrogen) diluted 1:1000 and DAPI (Thermo Fisher Scientific). Images were taken with a Cytation5 (BioTek) microscope. For scoring αSMA positive cells (FIG. 3b), an observer blinded to the treatment conditions counted αSMA-positive cells using a visual threshold for bright fibrous staining; a minimum of 200 cells was counted for each condition. YAP/TAZ localization was quantified (FIG. 2, 6, 8) using Gen5 (Biotek) software. Images were taken at 4× magnification of both DAPI and YAP/TAZ staining. […] Quantification of double positive (YAP/TAZ and αSMA) cells from lung tissue sections (FIG. 4d) was performed similarly; however separate thresholds were established for both YAP/TAZ and αSMA. A minimum of 4000 cells was quantified for each mouse.

αSMA = αSMA intensity (fibroblast activation) in IPF patient-derived lung fibroblasts + TGFβ; settings: 1 μM + TGFβ, treated for 72 hours; for activity at 1 µM: Homo sapiens, SMA
Procedure: as §1

YAP/TAZ [2] = test: YAP/TAZ nuclear localization (immunofluorescence, automated imaging) in IPF patient-derived lung fibroblasts; settings: 10 μM, treated 2 hours prior to fixation; for Nuclear localization (% of total cells) IPF-1: patient sample IPF-1; for Nuclear localization (% of total cells) IPF-2: patient sample IPF-2; for Nuclear localization (% of total cells) IPF-3: patient sample IPF-3; for Nuclear localization (% of total cells) IPF-4: patient sample IPF-4
Procedure: 27A. […] IPF patient-derived lung fibroblasts cells treated 2 hours prior to fixation with diverse dopaminergic agonists (10 μM). N=4 different patient samples. % nuclear localization of YAP/TAZ was determined using automated imaging software. Scale bar represents 100 μm. 27C. cAMP measured in IPF patient-derived fibroblasts treated for 20 minutes with DHX. N=3. 27E.
as §1

[3] = patient sample IPF-1, read-out: αSMA intensity (% of DMSO control) IPF-1
[4] = patient sample IPF-2, read-out: αSMA intensity (% of DMSO control) IPF-2
[5] = patient sample IPF-3, read-out: αSMA intensity (% of DMSO control) IPF-3
[6] = patient sample IPF-4, read-out: αSMA intensity (% of DMSO control) IPF-4

Compound | YAP/TAZ nuclear localization (YAP/TAZ [1]) | activity at 1 µM (αSMA; [3]) | activity at 1 µM (αSMA; [4]) | activity at 1 µM (αSMA; [5]) | activity at 1 µM (αSMA; [6]) | Nuclear localization (% of total cells) IPF-1 (YAP/TAZ [2]) | Nuclear localization (% of total cells) IPF-2 (YAP/TAZ [2]) | Nuclear localization (% of total cells) IPF-3 (YAP/TAZ [2]) | Nuclear localization (% of total cells) IPF-4 (YAP/TAZ [2]) | αSMA intensity (% of DMSO control) IPF-1 (αSMA; patient sample IPF-1) | αSMA intensity (% of DMSO control) IPF-2 (αSMA; patient sample IPF-2) | αSMA intensity (% of DMSO control) IPF-3 (αSMA; patient sample IPF-3) | αSMA intensity (% of DMSO control) IPF-4 (αSMA; patient sample IPF-4) | potency of inhibition of YAP/TAZ nuclear localization, normal lung fibroblasts vs IPF-derived (YAP/TAZ [1]; FIG. 6c) | YAP/TAZ nuclear localization in confluent fibroblasts, ligand alone (YAP/TAZ [1])
Oc1ccc(C2CNCCc3c2cc(O)c(O)c3Cl)cc1 (centres unmarked) [Fenoldopam•HCl, Fenoldopam] | reduced nuclear localization of YAP/TAZ | 77.3% | 45.3% | 69.4% | 63.4% | – | – | – | – | – | – | – | – | – | –
CNCCc1ccc(O)c(O)c1 [N-Methyldopamine•HCl, N-Methyldopamine] | – | 43.2% | 17.7% | 29% | 14.7% | 43.16 % of total cells | 46.73 % of total cells | 60.11 % of total cells | 70.44 % of total cells | – | – | – | – | – | –
Cc1cccc(C(=O)NCN2CCN(c3ccccc3C#N)CC2)c1.O=C(O)/C=C\C(=O)O [PD 168077 maleate] | – | – | – | – | – | 67.08 % of total cells | 42.44 % of total cells | 63.68 % of total cells | 68.4 % of total cells | 75.27 % of DMSO control | 56.15 % of DMSO control | 75.77 % of DMSO control | 66.5 % of DMSO control | – | –
CCCCC[C@H](O)/C=C/[C@H]1[C@H](O)CC(=O)[C@@H]1C/C=C\CCCC(=O)O [PGE2, Prostaglandin E2] | – | – | – | – | – | – | – | – | – | – | – | – | – | reduced potency | –
Br.C=CCN1CCc2c(cc(O)c(O)c2Br)[C@@H](c2ccccc2)C1 [R(+)-6-BROMO-APB•HBr, R(+)-6-bromo-APB] | – | – | – | – | – | 28.37 % of total cells | 38 % of total cells | 36 % of total cells | 25.65 % of total cells | 11.25 % of DMSO control | 2.507 % of DMSO control | 0.8506 % of DMSO control | 22.82 % of DMSO control | – | –
Br.CCCN1CCc2cc(O)cc3c2[C@H]1Cc1ccc(O)c(O)c1-3 [R(−)-2,10,11-Trihydroxy-N-propyl-noraporphine] | – | – | – | – | – | 32.87 % of total cells | 35.25 % of total cells | 37.7 % of total cells | 25.36 % of total cells | 4.895 % of DMSO control | 8.436 % of DMSO control | 2.988 % of DMSO control | 25.61 % of DMSO control | – | –
COc1ccc2c(c1O)-c1cc(O)cc3c1[C@@H](C2)N(C)CC3.Cl [R(−)-2,11-dihydroxy-10-methoxyapomorphine] | – | – | – | – | – | 85.18 % of total cells | 74.67 % of total cells | 80.73 % of total cells | 80.45 % of total cells | 91.84 % of DMSO control | 92.8 % of DMSO control | 81.85 % of DMSO control | 85.61 % of DMSO control | – | –
Oc1cc2c(c(Cl)c1O)CCNCC2c1ccccc1 (centres unmarked) [SKF-81297] | reduced nuclear localization of YAP/TAZ | – | – | – | – | – | – | – | – | – | – | – | – | – | –
NCCc1c[nH]c2ccc(O)cc12 [serotonin] | – | – | – | – | – | – | – | – | – | – | – | – | – | – | enhance YAP/TAZ nuclear localization
(R)-(−)-Apomorphine [(R)-(−)-Apomorphine•HCl] | – | – | – | – | – | 29.21 % of total cells | 31.97 % of total cells | 27.47 % of total cells | 17.86 % of total cells | 7.067 % of DMSO control | 1.173 % of DMSO control | 0.9618 % of DMSO control | 33.67 % of DMSO control | – | –
R(−)-2,10,11-Trihydroxyaporphine [R(−)-2,10,11-Trihydroxyaporphine•HBr] | – | – | – | – | – | 13.71 % of total cells | 22.15 % of total cells | 24.15 % of total cells | 17.75 % of total cells | 2.888 % of DMSO control | 1.698 % of DMSO control | 7.646 % of DMSO control | 15.9942 % of DMSO control | – | –
R(−)-Propylnorapomorphine [R(−)-Propylnorapomorphine•HCl] | – | – | – | – | – | 28.35 % of total cells | 26.71 % of total cells | 42.74 % of total cells | 29.03 % of total cells | 5.081 % of DMSO control | 1.879 % of DMSO control | 5.561 % of DMSO control | 19.96 % of DMSO control | – | –
endothelin-1: GPCR ligand implicated in promotion of fibrosis (CSCSSLMDKECVYFCHLDIIW; ends and bridges not checked; cysteine pairing not given here; UniProt P05305 53-73, looked up) | – | – | – | – | – | – | – | – | – | – | – | – | – | – | enhance YAP/TAZ nuclear localization
lysophosphatidic acid | – | – | – | – | – | – | – | – | – | – | – | – | – | – | enhance YAP/TAZ nuclear localization
